# Earlier results as cited in patent EP0023178A1, “Process for the preparation of concentrated solutions of amygdaline in its natural form” (SOMET, Société dite, priority 1979, dated 1981).
# Settings: water
compound,measurement,value
"N#CC(OC1OC(COC2OC(CO)C(O)C(O)C2O)C(O)C(O)C1O)c1ccccc1 (stereo not drawn) [amygdaline, D ou R mandélonitrile β-gentiobioside trihydraté]",solubilité dans l'eau,"8-8,5%"
